Test results taken from PMC12040169 (PLOS Biology, 2025).

Experiment: in vitro
Conditions: human, hela cells, % viability

SMILES | viability at 28.5 h, 10 µM [%] | viability at 28.5 h, 10 µM (bulk resorufin, single well) [%]
NS(=O)(=O)c1ccc(NC(=S)NNC(=S)Nc2ccc(F)cc2F)cc1 [CBK267102] | 93.3 | 
CN(C)c1cccc(Nc2cc(-c3cccc([N+](=O)[O-])c3)ncn2)c1 [CBK091012] | 102 | 
COc1ccccc1C1(NCc2cnn(C)c2)CCCC1 [CBK282744] | 97 | 
O=C(CCNc1n[nH]c(=O)[nH]c1=O)N/N=C/c1ccc(C(F)(F)F)cc1 [CBK263518] | 87.7 | 
CCCc1ccc(S(=O)(=O)Nc2ccc(C(=O)OC)cc2)cc1 [CBK028682] | 99.5 | 
CCCc1cc(C(=O)OC)c(NC(=O)CC2Nc3ccccc3NC2=O)s1 (centres unmarked) [CBK269451] | 107 | 
COCc1cc(C)nc(OCC(=O)N2CCCCC2)c1C#N [CBK270228] | 104 | 
O=C(c1coc(COc2cccc(F)c2)n1)N1CC(n2cccn2)C1 [CBK306842] | 77.2 | 
CCOC(=O)c1cnn(C2CCCN(Cc3cc(C#N)cs3)C2)c1 (centres unmarked) [CBK305399] | 101 | 
Cc1ccccc1C(=O)NCC(=O)Nc1ccc(Cl)nc1 [CBK091335] | 103 | 
CCNC(=O)Nc1ncc(-c2ccsc2)c2cccnc12 [CBK070686] | 103 | 
O=C1NC[C@]2(CC[C@@H](C(=O)NC3CC3)CC2)Oc2ccc(Cl)cc21 [CBK284889] | 94.2 | 
O=C1CSC2c3ccccc3C(=O)N2c2ccccc21 (centres unmarked) [CBK113670] | 108 | 
COC(=O)CCn1c(-c2ccncc2)cc2cccnc21 [CBK282592] | 65.2 | 
c1ccc(Oc2cccc(CN3CCN(c4ccccn4)CC3)c2)cc1 [CBK261523] | 102 | 
O=C(CSc1ccc(F)cc1)Nc1cc(Cl)ccc1O [CBK268685] | 87.5 | 
COc1ccc(-c2c[nH]c([C@@H]3COCCN3Cc3csnn3)n2)cc1 [CBK289297] | 97.5 | 
Cc1cccc2cnc(C3CCN(C(=O)CCc4ccno4)CC3)cc12 [CBK285197] | 81 | 
CC(=O)N1CCC(C(=O)NC(=O)Nc2cccc(C)c2)CC1 [CBK034854] | 94.3 | 
Cc1nn(C)cc1-c1cncn1CCn1nc(C)c(C)c1C [CBK281785] | 108 | 
N#Cc1ccccc1COC(=O)c1cc(-c2ccc(/C=C/c3nc(O)c([N+](=O)[O-])c(=O)[nH]3)o2)ccc1Cl [CBK269115] | 101 | 
COCC(C)NC(=O)c1nn(-c2nc3ccccc3s2)c2ccccc12 (centres unmarked) [CBK048488] | 92.6 | 
COc1ccc(Nc2nc(Cl)nc(NCCN3CCOCC3)n2)cc1 [CBK027610] | 104 | 

SMILES | viability at 28.5 h, 10 µM [%] | viability at 28.5 h, 10 µM (bulk resorufin, single well) [%]
Cc1ccc2c(c1)C(=O)CC1(CCC3C(C(=O)NC4CCCC4)C31)O2 (centres unmarked) [CBK282716] | 83.4 | 
Oc1c(C(Nc2cccnc2)c2cccs2)ccc2cccnc12 (centres unmarked) [CBK268637] | 72.4 | 
Cc1cccc(C2(O)CCN(C(=O)c3ccc4nc(C)[nH]c4c3)CC2)c1 [CBK283299] | 102 | 
FC(F)(F)c1cccc(OCCOc2nccnc2N2CCNCC2)c1 [CBK014518G] | 105 | 
N#CCCCN1CCC(Oc2nccnc2OCc2cc(Cl)cc(Cl)c2)CC1 [CBK153634] | 93.9 | 
Cc1[nH]c2ccccc2c1C(=O)CSc1nc(N)cc(=O)[nH]1 [CBK297511] | 103 | 
Cc1cnc(CNS(=O)(=O)c2ccc(F)cc2)cn1 [CBK050489] | 107 | 
NS(=O)(=O)c1ccc(NC(=S)NNC(=O)c2ccc(Br)o2)cc1 [CBK266972] | 95.8 | 
CCN(c1cc(N2CCCNCC2)ccc1NS(=O)(=O)c1cccc2cccnc12)S(C)(=O)=O [CBK000014C] | 80.1 | 
CC(=O)Nc1ccc(-c2cccc(COC3CCN(C(=O)c4ccc(OC(C)C)cc4)CC3)c2)cc1 [CBK149485] | 100 | 
O=C(c1n[nH]nc1-c1ccccc1)N1CCCC(C(F)(F)F)C1 (centres unmarked) [CBK164228] | 96.1 | 
O=[N+]([O-])c1ccc(CN2CCN(Cc3ccc4c(c3)OCO4)CC2)o1 [CBK074557] | 88.7 | 
CC(C)NC(=O)N(C)C1CCN(c2ncnc3ccccc23)CC1 [CBK306224] | 92.4 | 
CN1CCC(=NNC(=O)CCSc2ccc(Cl)cc2)CC1 [CBK020372] | 99.6 | 
O=C1NC(=O)N(Cc2ccccc2)C(=O)/C1=C\NC(CO)(CO)CO [CBK264431] |  | 104
Cc1nc2c(c(=O)[nH]1)CN(Cc1ccc(Cl)cc1)CC2 [CBK282415] | 84.5 | 
Nc1ccc(-c2cncc(NCc3ccccc3)n2)cc1 [CBK065578] | 109 | 
CC(=O)Nc1ccc(-c2ccc(COC3CCN(C(=O)OC(C)(C)C)CC3)cc2)cc1 [CBK138215] | 99.8 | 
Cc1cccc(OCC(C)NC(=O)N2CCCC2c2cnn(C)c2)c1 (centres unmarked) [CBK304100] | 91.6 | 
CC(C)(C)c1ccc(-c2cnc3nc(O)ccc3c2)cc1 [CBK081284] | 74.6 | 
CSc1ccccc1NC(=O)CN(c1ccc(F)cc1)S(=O)(=O)c1ccc2c(c1)OCCO2 [CBK266836] | 101 | 
C[C@H](NC1=NC(=O)[C@@](C)(C(C)(C)O)S1)c1ccc(F)cc1 [CBK138436] | 98.1 | 
CN(C)c1ccc(Nc2cc(-c3cccc4ccccc34)ncn2)cc1 [CBK037835] | 46.8 | 

SMILES | viability at 28.5 h, 10 µM [%] | viability at 28.5 h, 10 µM (bulk resorufin, single well) [%]
CSc1nc(NC(=O)CCCc2ccccc2)cc(N2CCNCC2)n1 [CBK050258T] | 111 | 
Cc1nc(N)sc1-c1nnc(SCC(=O)Nc2ccccc2C(F)(F)F)n1C [CBK267359] | 99.5 | 
O=c1c(-c2nc3ccccc3s2)coc2c(CN3CCCCC3)c(O)ccc12 [CBK262161] | 106 | 
Cc1cc(C)c(NC(=O)C2CCCN2CCCN(C)C)c(C)c1 (centres unmarked) [CBK278172F] | 97.1 | 
CS(=O)(=O)N(CC(=O)Nc1ccc(C(F)(F)F)cc1)Cc1ccc(Cl)cc1 [CBK268915] | 99.7 | 
OC(COCc1ccccc1)CN1CCN(Cc2ccccc2)CC1 (centres unmarked) [CBK278297C] | 107 | 
CCC(C)NC(=O)C1(Cc2cccc(-c3ccc(OC)cc3)c2)CCOCC1 (centres unmarked) [CBK286513] | 94.9 | 
O=C(O)Cc1nc(-c2ccccc2)c(-c2ccccc2)s1 [CBK159470] | 99.4 | 
FC(F)(F)c1cccc(Oc2nnnn2-c2ccccc2)c1 [CBK002798] | 92.6 | 
COc1cc(NC(=O)COc2cc(C)cc(C)c2)c(C(=O)O)cc1OC [CBK268650] | 93.8 | 
CCCC(=O)N1CCC(c2nc(C3CCCC3)no2)C1 (centres unmarked) [CBK285457] | 106 | 
N#CCCn1cc(C(=O)n2nnc3ccccc32)c(-c2cc3ccccc3o2)n1 [CBK268073] | 103 | 
Cc1n[nH]c(C)c1-c1ccc2c(cnn2C)c1 [CBK307314] | 70.3 | 
CC1CN(CCOc2ccccc2C=O)CC(C)O1 (centres unmarked) [CBK269687C] | 101 | 
CCN1CCN(C(=O)Cc2ccc(OC)cc2)C(Cc2ccc(-c3ccncc3)cc2)C1=O (centres unmarked) [CBK285804] | 106 | 
CCOC(=O)C1CCN(S(=O)(=O)c2ccc(C(C)C)cc2)CC1 [CBK200044] | 86.4 | 
O=C(O)/C=C/C(=O)N1N=C(c2ccc(F)cc2)CC12C(=O)Nc1ccccc12 (centres unmarked) [CBK286747] | 88.9 | 
CC(C)c1ccc(NS(=O)(=O)c2csc3ccnc(N4CCNCC4)c23)cc1 [CBK042343C] | 95.8 | 
O=C(CN1CCOCC1)N1CCc2ccccc21 [CBK200271] | 96.3 | 
COc1ccc(-c2noc(CSc3nnc(-c4cccs4)n3-c3ccccc3)n2)cc1 [CBK268390] | 107 | 
CCOC(=O)c1cccnc1-c1ccc(Cl)c(Cl)c1 [CBK149241] | 92.1 | 
COc1cc2c(cc1OC)CN(C(=O)C1CCN(C)CC1)CC2 [CBK122744] | 93.2 | 
Cc1ccccc1-c1noc(CSc2nnc(-c3ccncc3)n2-c2ccc(F)cc2)n1 [CBK269089] | 96.8 | 

SMILES | viability at 28.5 h, 10 µM [%] | viability at 28.5 h, 10 µM (bulk resorufin, single well) [%]
CCCC(=O)N1CCC(Cc2ccc(-c3cccc(C)c3)cc2)(C(=O)NC(C)C)CC1 [CBK285760] | 93.9 | 
O=C(Cc1c[nH]c(=O)[nH]c1=O)N1CCCCC1c1nc2cc(F)ccc2[nH]1 (centres unmarked) [CBK291108] | 104 | 
CCOc1ccccc1C(=O)N1CCCCC1c1ncc(C(=O)Nc2ccccc2)c(C)n1 (centres unmarked) [CBK285840] | 103 | 
CC(C)N1CCCC(CNC(=O)c2cc(C3CCCCC3)no2)C1 (centres unmarked) [CBK283294] | 97.2 | 
O=C(c1c(F)cccc1F)N1CCC(O)(c2cccnc2F)CC1 [CBK284359] | 97.7 | 
O=C(O)C(Nc1nc(C(F)(F)F)nc2ccccc12)c1ccccc1 (centres unmarked) [CBK269570] | 106 | 
Cc1cccc(C2(O)CCN(CC(O)c3ccccc3)CC2)c1 (centres unmarked) [CBK286325] | 106 | 
COc1ccc(-c2cc(-c3nnc(S)n3-c3ccccc3Cl)[nH]n2)cc1 [CBK265880] | 100 | 
Cc1cc(C)nc(NC(=O)c2c(Cl)cccc2Cl)n1 [CBK058401] | 99.9 | 
CC(CC(=O)O)CC(=O)Nc1ccccc1C(=O)O (centres unmarked) [CBK265671] | 99.2 | 
C[C@@H]1CN(Cc2ccccc2)C[C@H](C)N1 [CBK001569] | 86.1 | 
COc1ccc(NC(=O)N(CCO)C2CCCCC2)c(OC)c1 [CBK008768] | 90.9 | 
CCCC(=O)Nc1ccccc1NC(=O)c1cccc([N+](=O)[O-])c1C [CBK267398] | 92.1 | 
Clc1ccc(CN2CCN(CCc3ccccc3)CC2)cc1Cl [CBK126420] | 96.3 | 
O=C1CC(c2ccco2)Cc2c1cnn2-c1ccccc1 (centres unmarked) [CBK287860] | 95.8 | 
COc1ccc(C2c3cc(OC)c(OC)cc3CC(=O)N2c2ccc(C(=O)O)cc2)cc1OC (centres unmarked) [CBK296082] | 96.4 | 
CCN(CC)C(=O)C1CCCN(C(=O)NCCc2c[nH]cn2)C1 (centres unmarked) [CBK156124] | 96.9 | 
CCCCNC(=S)NC1CC[C@@]2(c3ccc(Br)cc3)CCN(C)[C@H]2C1 (some centres unmarked) [CBK003781] | 111 | 
Cc1[nH]c2c(C)cccc2c1CC(=O)N(C)CCN(C)C [CBK282724] | 82.6 | 
CC(C(=O)N[C@H]1C2CCCCC2[C@@H]1c1ccccc1)N1CCOCC1 (some centres unmarked) [CBK282964] | 86.4 | 
